Measured values published in PMC5216056 (Nature Communications, 2017).

Key:
dopamine transporter (h) = biological target: T1, dopamine transporter (h) (Homo sapiens, UniProt Q01959); experiment: CEREP panel; assay type: binding
T1 construct: CEREP (contract assay)

hABHD12 = biological target: T2, hABHD12 (Homo sapiens, UniProt Q8N2K0); experiment: ABHD12 activity; assay type: biochemical; conditions: read-out: ABHD12 % inhibition
T2 construct: expressed in transfected cells
T2 sequence (Q8N2K0 1-398): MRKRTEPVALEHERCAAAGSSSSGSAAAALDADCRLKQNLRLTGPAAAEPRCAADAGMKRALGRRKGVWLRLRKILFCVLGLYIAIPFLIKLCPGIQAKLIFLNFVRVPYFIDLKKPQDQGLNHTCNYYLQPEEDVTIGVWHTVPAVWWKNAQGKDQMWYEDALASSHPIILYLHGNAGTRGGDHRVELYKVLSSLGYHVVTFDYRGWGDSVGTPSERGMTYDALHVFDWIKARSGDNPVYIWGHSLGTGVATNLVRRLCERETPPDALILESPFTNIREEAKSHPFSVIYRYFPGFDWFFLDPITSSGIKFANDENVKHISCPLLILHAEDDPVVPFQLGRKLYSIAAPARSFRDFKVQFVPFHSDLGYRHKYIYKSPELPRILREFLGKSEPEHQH

CCK1 (CCKA) (h) = biological target: T3, CCK1 (CCKA) (h) (Homo sapiens, UniProt P32238); experiment: CEREP panel; assay type: binding
T3 construct: CEREP (contract assay)

dopamine uptake reporter = biological target: T4, dopamine uptake reporter (Homo sapiens, UniProt Q01959); experiment: Dopamine uptake full dose-response (CEREP follow-up)
T4 construct: CEREP

[1] = Pharmacokinetics, oral administration in rat; assay type: in vivo; conditions: p.o.
H1 (h) = biological target: T5, H1 (h) (Homo sapiens, UniProt P35367); experiment: CEREP panel; assay type: binding; conditions: 10 µM
T5 construct: CEREP (contract assay)

H3 (h) = biological target: T6, H3 (h) (Homo sapiens, UniProt Q9Y5N1); experiment: CEREP panel; assay type: binding; conditions: 10 µM
T6 construct: CEREP (contract assay)

D2S (h) = biological target: T7, D2S (h) (Homo sapiens, UniProt P14416); experiment: CEREP panel; assay type: binding; conditions: 10 µM
T7 construct: CEREP (contract assay)

BLT1 (LTB4) = biological target: T8, BLT1 (LTB4) (Homo sapiens, UniProt Q15722); experiment: CEREP panel; assay type: binding
T8 construct: CEREP

A2B = biological target: T9, A2B (Homo sapiens, UniProt P29275); experiment: CEREP panel; assay type: binding
T9 construct: CEREP

PR = experiment: CEREP panel; assay type: binding; conditions: 10 µM
MC3 = biological target: T10, MC3 (Homo sapiens, UniProt P41968); experiment: CEREP panel; assay type: binding
T10 construct: CEREP (contract assay)

B1 = biological target: T11, B1 (Homo sapiens, UniProt P46663); experiment: CEREP panel; assay type: binding
T11 construct: CEREP

MC5 = biological target: T12, MC5 (Homo sapiens, UniProt P33032); experiment: CEREP panel; assay type: binding
T12 construct: CEREP (contract assay)

C5a = biological target: T13, C5a (Homo sapiens, UniProt P21730); experiment: CEREP panel; assay type: binding
T13 construct: CEREP (contract assay)

MC1 = biological target: T14, MC1 (Mus musculus, UniProt Q01727); experiment: CEREP panel; assay type: binding
T14 construct: CEREP (contract assay)

MCH1 = biological target: T15, MCH1 (Homo sapiens, UniProt Q99705); experiment: CEREP panel; assay type: binding
T15 construct: CEREP (contract assay)

MCH2 = biological target: T16, MCH2 (Homo sapiens, UniProt Q969V1); experiment: CEREP panel; assay type: binding
T16 construct: CEREP (contract assay)

motilin = biological target: T17, motilin (Homo sapiens, UniProt O43193); experiment: CEREP panel; assay type: binding
T17 construct: CEREP (contract assay)

[2] = phosphate buffer pH 6.5, from DMSO stock

T9 sequence (P29275 whole entry): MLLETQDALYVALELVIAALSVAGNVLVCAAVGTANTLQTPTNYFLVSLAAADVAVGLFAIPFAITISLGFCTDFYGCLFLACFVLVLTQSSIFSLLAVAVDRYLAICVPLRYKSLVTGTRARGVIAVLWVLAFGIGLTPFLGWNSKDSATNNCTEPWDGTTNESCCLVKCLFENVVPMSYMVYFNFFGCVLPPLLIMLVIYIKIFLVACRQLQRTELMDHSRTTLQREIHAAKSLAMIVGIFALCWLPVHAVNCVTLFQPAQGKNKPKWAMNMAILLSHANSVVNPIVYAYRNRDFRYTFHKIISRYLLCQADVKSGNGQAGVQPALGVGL
T13 sequence (P21730 whole entry): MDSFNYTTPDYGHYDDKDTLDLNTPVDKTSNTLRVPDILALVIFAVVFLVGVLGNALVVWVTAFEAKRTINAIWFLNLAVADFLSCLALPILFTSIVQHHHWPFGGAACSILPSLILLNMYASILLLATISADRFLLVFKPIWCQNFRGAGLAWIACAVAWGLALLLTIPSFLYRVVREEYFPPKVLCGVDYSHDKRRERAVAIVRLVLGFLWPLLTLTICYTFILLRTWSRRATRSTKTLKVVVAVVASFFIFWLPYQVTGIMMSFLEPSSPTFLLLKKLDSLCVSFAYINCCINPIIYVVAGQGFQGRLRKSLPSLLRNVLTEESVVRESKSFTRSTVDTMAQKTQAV
T17 sequence (O43193 whole entry): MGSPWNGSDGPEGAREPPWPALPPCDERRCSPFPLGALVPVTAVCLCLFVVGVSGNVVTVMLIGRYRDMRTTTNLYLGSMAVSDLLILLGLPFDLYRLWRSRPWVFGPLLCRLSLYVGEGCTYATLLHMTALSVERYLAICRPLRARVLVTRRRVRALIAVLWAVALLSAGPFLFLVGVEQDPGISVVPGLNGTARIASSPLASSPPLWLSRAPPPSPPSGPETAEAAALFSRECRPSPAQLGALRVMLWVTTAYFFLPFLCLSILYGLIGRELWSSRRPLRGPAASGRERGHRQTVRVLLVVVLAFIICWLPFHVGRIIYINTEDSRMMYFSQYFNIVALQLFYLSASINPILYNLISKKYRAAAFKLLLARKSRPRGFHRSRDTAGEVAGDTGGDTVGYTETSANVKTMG
T6 sequence (Q9Y5N1 whole entry): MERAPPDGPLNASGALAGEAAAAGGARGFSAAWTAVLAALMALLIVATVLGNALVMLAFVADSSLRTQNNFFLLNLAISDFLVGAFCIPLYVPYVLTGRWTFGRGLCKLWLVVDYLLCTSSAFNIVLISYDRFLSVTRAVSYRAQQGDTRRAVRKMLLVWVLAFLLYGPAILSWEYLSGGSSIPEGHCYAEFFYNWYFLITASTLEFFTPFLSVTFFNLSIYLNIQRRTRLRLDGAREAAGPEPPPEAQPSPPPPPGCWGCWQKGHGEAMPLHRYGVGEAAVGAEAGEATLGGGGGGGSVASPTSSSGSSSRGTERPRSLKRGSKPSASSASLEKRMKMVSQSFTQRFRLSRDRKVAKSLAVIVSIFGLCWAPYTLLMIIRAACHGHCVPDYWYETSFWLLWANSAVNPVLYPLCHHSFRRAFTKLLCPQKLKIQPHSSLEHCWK
T12 sequence (P33032 whole entry): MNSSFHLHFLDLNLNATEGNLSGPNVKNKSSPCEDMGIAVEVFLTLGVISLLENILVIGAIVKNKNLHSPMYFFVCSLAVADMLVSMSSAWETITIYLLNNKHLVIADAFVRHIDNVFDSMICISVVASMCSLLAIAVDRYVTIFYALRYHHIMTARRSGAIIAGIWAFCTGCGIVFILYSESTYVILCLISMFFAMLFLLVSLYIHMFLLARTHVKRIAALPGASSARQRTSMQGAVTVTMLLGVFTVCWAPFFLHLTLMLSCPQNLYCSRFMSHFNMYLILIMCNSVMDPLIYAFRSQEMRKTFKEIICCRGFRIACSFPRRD
T4 sequence (Q01959 whole entry): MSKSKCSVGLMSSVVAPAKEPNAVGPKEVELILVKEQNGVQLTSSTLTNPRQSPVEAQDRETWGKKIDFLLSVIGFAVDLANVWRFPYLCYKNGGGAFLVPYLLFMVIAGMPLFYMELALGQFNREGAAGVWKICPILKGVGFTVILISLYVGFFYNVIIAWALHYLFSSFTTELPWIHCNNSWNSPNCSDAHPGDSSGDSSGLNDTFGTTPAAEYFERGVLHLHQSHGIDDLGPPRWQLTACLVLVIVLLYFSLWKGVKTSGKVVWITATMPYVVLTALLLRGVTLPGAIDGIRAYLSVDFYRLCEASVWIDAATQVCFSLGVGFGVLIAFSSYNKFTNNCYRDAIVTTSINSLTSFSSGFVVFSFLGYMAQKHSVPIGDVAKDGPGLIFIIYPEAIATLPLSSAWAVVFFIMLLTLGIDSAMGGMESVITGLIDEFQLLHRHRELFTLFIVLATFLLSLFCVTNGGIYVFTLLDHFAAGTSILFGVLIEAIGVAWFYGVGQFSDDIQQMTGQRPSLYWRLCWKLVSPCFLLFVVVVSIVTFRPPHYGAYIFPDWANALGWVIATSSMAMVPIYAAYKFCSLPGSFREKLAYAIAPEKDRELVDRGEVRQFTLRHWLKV
T1 sequence (Q01959 whole entry): as above
T11 sequence (P46663 whole entry): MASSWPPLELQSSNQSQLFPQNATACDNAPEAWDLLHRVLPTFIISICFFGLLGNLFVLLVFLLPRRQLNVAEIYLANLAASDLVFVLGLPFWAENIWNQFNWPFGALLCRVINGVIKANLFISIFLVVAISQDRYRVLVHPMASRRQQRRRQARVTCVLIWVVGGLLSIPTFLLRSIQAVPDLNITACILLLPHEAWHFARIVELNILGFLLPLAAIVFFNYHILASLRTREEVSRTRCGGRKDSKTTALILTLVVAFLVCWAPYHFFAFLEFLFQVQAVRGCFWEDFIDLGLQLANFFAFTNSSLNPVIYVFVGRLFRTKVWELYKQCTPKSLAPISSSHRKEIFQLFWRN
T10 sequence (P41968 whole entry): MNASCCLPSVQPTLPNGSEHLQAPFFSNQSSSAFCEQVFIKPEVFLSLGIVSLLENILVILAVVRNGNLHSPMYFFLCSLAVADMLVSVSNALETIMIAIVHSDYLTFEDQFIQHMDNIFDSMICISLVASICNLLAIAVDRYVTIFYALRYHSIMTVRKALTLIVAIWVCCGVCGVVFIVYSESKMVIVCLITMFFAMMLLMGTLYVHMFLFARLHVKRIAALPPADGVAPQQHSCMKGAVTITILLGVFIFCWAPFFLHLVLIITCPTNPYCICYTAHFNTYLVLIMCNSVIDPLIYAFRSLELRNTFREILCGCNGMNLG
T3 sequence (P32238 whole entry): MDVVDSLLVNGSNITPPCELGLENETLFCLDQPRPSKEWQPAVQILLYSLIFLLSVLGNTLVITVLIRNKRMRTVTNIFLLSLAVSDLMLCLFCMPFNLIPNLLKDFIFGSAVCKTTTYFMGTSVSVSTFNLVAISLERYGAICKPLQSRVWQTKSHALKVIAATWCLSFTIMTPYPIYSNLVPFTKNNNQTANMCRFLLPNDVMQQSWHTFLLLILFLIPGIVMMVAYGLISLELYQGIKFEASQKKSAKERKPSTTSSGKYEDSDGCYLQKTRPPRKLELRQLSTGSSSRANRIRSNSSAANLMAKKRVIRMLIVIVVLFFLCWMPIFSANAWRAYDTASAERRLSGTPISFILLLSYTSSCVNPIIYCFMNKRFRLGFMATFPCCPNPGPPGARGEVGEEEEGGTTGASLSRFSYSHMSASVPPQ
T8 sequence (Q15722 whole entry): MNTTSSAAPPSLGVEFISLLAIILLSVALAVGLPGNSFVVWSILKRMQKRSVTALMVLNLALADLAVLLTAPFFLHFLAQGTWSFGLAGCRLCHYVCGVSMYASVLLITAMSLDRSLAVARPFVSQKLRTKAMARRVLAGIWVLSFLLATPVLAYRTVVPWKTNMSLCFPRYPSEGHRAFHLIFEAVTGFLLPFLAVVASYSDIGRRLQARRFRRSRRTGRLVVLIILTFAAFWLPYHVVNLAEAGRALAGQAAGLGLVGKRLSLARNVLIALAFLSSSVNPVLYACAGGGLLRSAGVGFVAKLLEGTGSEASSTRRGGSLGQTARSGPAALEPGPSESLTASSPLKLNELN
T14 sequence (Q01727 whole entry): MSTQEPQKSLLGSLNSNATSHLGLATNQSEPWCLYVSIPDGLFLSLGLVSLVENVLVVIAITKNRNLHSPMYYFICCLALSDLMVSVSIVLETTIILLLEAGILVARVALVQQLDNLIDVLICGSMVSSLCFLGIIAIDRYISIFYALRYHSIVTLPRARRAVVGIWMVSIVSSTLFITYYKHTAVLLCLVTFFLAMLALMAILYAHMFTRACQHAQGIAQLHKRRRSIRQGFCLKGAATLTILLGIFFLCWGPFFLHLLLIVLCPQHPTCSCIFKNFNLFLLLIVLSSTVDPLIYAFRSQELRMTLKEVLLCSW
T16 sequence (Q969V1 whole entry): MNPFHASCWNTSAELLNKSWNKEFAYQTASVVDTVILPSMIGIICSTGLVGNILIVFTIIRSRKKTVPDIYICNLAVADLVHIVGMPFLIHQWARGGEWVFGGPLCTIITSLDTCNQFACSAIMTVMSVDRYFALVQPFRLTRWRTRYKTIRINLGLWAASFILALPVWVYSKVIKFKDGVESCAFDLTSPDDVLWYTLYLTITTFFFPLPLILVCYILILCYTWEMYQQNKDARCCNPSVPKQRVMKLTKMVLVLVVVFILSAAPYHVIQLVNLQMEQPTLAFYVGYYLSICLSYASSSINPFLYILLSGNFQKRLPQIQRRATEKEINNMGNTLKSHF

**Q.** What does the source list for CCCCCCC(C)(C)c1cc(OC)c([C@@H]2C=C(CO)[C@@H]3C[C@H]2C3(C)C)c(OC)c1 [HU308]?
**A.** inhibition at 10 µM (dopamine transporter (h)): 71%; inhibition at 5 µM (hABHD12): < 25%; inhibition at 10 µM (CCK1 (CCKA) (h)): 75%

**Q.** For CCCCCCC(C)(C)c1cc(OC)c(C2=C[C@H]3CC[C@]2(CO)C3(C)C)c(OC)c1 [HU910], which IC50 (dopamine uptake reporter) is on record?
**A.** Its IC50 is 1.4 µM.

**Q.** Which AUCinf/dose [1] does the source give for CCCC(C)(C)c1ccc2c(c1)OC(C)(C)[C@@H]1CC=C(C)C[C@@H]21 [JWH133] here?
**A.** Its AUCinf/dose is 583 kg·ng·h/mL/mg.

**Q.** And the AUClast [1]?
**A.** The AUClast was 3330 ng·h/mL.

**Q.** What about the T1/2 [1] of the same compound?
**A.** Its T1/2 is 2.7 h.

**Q.** And the Cmax ([1]; 6.0 mg/kg)?
**A.** Its Cmax is 2070 ng/mL.

**Q.** What about the Tmax ([1]; 6.0 mg/kg) of the same compound?
**A.** Its Tmax is 1.1 h.

**Q.** What does the source list for CN1CCCC[C@H]1Cn1cc(C(=O)c2cc([N+](=O)[O-])ccc2I)c2ccccc21 [(S)-AM1241]?
**A.** % inhibition H1 (h) (H1 (h)): 78%; % inhibition H3 (h) (H3 (h)): 87%

**Q.** With Cc1ccc2c(c1)Cc1c(C(=O)NN3CCCCC3)nn(-c3ccc(Cl)cc3Cl)c1-2 [Gp-1a] as the compound, how does the “% inhibition D2S (h)” value (D2S (h)) read?
**A.** Its value is 53%.

**Q.** For Cc1c(C(=O)NN2CCCCC2)nn(-c2ccc(Cl)cc2Cl)c1-c1ccc(Cl)cc1 [SR141716A], which inhibition at 10 µM (BLT1 (LTB4)) is on record?
**A.** The inhibition at 10 µM was 14%.

**Q.** And the inhibition at 10 µM (A2B)?
**A.** The inhibition at 10 µM was -7%.

**Q.** And the “% inhibition PR” value (PR)?
**A.** The value was 12%.

**Q.** What about the inhibition at 10 µM (MC3) of the same compound?
**A.** The inhibition at 10 µM was 53%.

**Q.** What about the inhibition at 10 µM (B1) of the same compound?
**A.** The inhibition at 10 µM was -3%.

**Q.** And the inhibition at 10 µM (MC5)?
**A.** The inhibition at 10 µM was 39%.

**Q.** And the inhibition at 10 µM (C5a)?
**A.** The inhibition at 10 µM was 2%.

**Q.** What about the inhibition at 10 µM (MC1) of the same compound?
**A.** Its inhibition at 10 µM is 10%.

**Q.** And the inhibition at 10 µM (MCH1)?
**A.** The inhibition at 10 µM was -12%.

**Q.** And the inhibition at 10 µM (MCH2)?
**A.** Its inhibition at 10 µM is -3%.

**Q.** What about the inhibition at 10 µM (motilin) of the same compound?
**A.** Its inhibition at 10 µM is 25%.

**Q.** With CCCCCCC(C)(C)c1ccc([C@@H]2C[C@H](O)CC[C@H]2CCCO)c(O)c1 [CP55940] as the compound, how does the Kinetic solubility [2] read?
**A.** Its Kinetic solubility is “soluble”.
